Assay results from US20240058457A1, “BTK DEGRADER” (Newave Pharmaceutical Inc., priority 2020, published 2024).

Legend:
BTK = biological target: T1, BTK (Homo sapiens, UniProt Q06187); experiment: BTK HTRF degradation assay; type: cell-based; settings: treatment time 24 h; Cisbio Total-BTK HTRF; Rec-1 / Ramos cells
T1 construct: endogenous in cells; host or cells: Rec-1 cells (ATCC) / Ramos cells
Protocol: Rec-1 cells were obtained from American Type Culture Collection and were grown in RPMI-1640 media (ATCC, 30-2001) supplemented with 10% heat-inactivated FBS (Corning Premium Fetal Bovine Serum from Fisher, MT35015CV). Compounds of the present invention were added to 50,000 Ramos cells in round-bottom 96 well plates with a final DMSO concentration of […] and were incubated at 37° C. 5% CO2 for different time. BTK levels were determined using Cisbio Total-BTK HTRF ([…] Time-Resolved Fluorescence) kit (63ADK064PEG) according to manufacturer's protocol. Briefly, cells were incubated in 1× supplied lysis buffer for 30 minutes. In an opaque white low volume 96 well plate (Cisbio, 66PL96005), cell lysate was combined with two different specific BTK antibodies, one conjugated with Eu3+-Cryptate FRET donor and one conjugated with d2 FRET acceptor. Assay controls include wells containing cell lysate with only the Eu3+-Cryptate FRET donor antibody and wells containing both HTRF antibodies and lysis buffer without cells or control lysate provided by Cisbio. HTRF ratio was calculated as (acceptor signal at 665 nm/donor signal at 620 nm)×[…]. Background HTRF levels were determined from the control well containing the donor, but no acceptor, antibody. Background HTRF levels were subtracted from all samples. Readouts were reported as HTRF levels relative to HTRF levels of DMSO-treated cells. Four-parameter non-linear regressions were performed in GraphPad Prism 7.02 to obtain DC50 values.

Mice PK study = type: in vivo; settings: CD-1 mouse; for AUCinf(h*ng/mL)/(mg/kg): plasma, route not stated in table (text: oral PK profile)
Protocol: The pharmacokinetics of compounds were evaluated in CD-1 mouse via Intravenous and Oral Administration. The IV dose was administered as a slow bolus in the Jugular vein, and oral doses were administered by gavage. The formulation for IV dosing is 5% DMSO in 20% HPBCD in water, and the PO formulation is 2.5% DMSO, 10% EtOH, 20% Cremphor EL, 67.5% D5W. The PK time point for the IV arm was 5, 15, 30 min, 1, 2, 4, 6, 8, 12, 24 hours post dose, and for PO arm was 15, 30 min, 1, 2, 4, 6, 8, 12, 24 hours post dose. Approximately 0.03 mL blood was collected at each time point. Blood of each sample was transferred into plastic micro centrifuge tubes containing EDTA-K2 and plasma was collected within 15 min by centrifugation at 4000 g for 5 minutes in a 4° C. centrifuge. Plasma samples were stored in polypropylene tubes. The samples were stored in a freezer at −75±15° C. prior to analysis. Concentrations of compounds in the plasma samples were analyzed using a LC-MS/MS method. WinNonlin (Phoenix™, version 6.1) or other similar software was used for pharmacokinetic calculations. The following pharmacokinetic parameters were calculated, whenever possible from the plasma concentration versus time data: IV administration: C0, CL, Vd, T1/2, AUCinf, AUClast, MRT, Number of Points for Regression; PO administration: Cmax, Tmax, T1/2, AUCinf, AUClast, F %, Number of Points for Regression. The pharmacokinetic data was described using descriptive statistics such as mean, standard deviation. Additional pharmacokinetic or statistical analysis was performed at the discretion of the contributing scientist, and was documented in the data summary.

T1 sequence (Q06187 whole entry): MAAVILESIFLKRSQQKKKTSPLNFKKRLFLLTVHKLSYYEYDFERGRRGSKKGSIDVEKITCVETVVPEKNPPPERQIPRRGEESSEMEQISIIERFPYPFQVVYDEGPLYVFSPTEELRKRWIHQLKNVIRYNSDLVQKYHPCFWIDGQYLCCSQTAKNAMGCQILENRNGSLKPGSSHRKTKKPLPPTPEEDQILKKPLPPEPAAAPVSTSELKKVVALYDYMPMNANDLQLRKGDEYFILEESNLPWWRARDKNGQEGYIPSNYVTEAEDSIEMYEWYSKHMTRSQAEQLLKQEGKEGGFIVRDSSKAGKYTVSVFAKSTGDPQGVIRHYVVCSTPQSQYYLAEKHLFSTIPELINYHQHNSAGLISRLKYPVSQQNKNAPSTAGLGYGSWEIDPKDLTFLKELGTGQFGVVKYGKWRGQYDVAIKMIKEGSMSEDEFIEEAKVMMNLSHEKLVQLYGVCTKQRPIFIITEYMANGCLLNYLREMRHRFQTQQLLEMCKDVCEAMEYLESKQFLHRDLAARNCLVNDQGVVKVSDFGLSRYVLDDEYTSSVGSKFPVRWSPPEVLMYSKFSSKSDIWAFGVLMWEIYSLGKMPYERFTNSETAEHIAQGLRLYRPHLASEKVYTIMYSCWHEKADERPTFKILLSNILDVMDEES

Row | DC50 (BTK) [nM] | Dmax % (BTK) [%] | AUCinf(h*ng/mL)/(mg/kg) (Mice PK study) | Dmax (BTK) [%] | oral PK profile (comparison) (Mice PK study; oral) | Structure (SMILES)
1 | 0.46 | 96 | 3,120 (h*ng/mL)/(mg/kg) | – | – | C[C@H]1CN(C2CCN(c3ccc4c(c3)C(=O)N(C3CCC(=O)NC3=O)C4=O)CC2)CCN1c1ccc(Nc2cc(-c3ccnc(N4CCn5c(cc6c5CC(C)(C)C6)C4=O)c3CO)cn(C)c2=O)nc1 (stereo partly drawn) [Example 2, 5-{4-[(3S)-4-{6-[(2′-{4,4-dimethyl-9-oxo-1,10-diazatricyclo[6.4.0.0^{2,6}]dodeca-2(6),7-dien-10-yl}-3′-(hydroxymethyl)-1-methyl-6-oxo-[3,4′-bipyridin]-5-yl)amino]pyridin-3-yl}-3-methylpiperazin-1-yl]piperidin-1-yl}-2-(2,6-dioxopiperidin-3-yl)isoindole-1,3-dione]
2 | 1.1 | – | 3,822 (h*ng/mL)/(mg/kg) | 98 | better oral PK profile than Example 2 | [2H]C([2H])([2H])n1cc(-c2ccnc(N3CCn4c(cc5c4CC(C)(C)C5)C3=O)c2CO)cc(Nc2ccc(N3CCN(C4CCN(c5ccc6c(c5)C(=O)N(C5CCC(=O)NC5=O)C6=O)CC4)C[C@@H]3C)cn2)c1=O (stereo partly drawn) [Example 22, 5-(4-((S)-4-(6-((2′-(7,7-dimethyl-1-oxo-1,3,4,6,7,8-hexahydro-2H-cyclopenta[4,5]pyrrolo[1,2-a]pyrazin-2-yl)-3′-(hydroxymethyl)-1-(methyl-d3)-6-oxo-1,6-dihydro-[3,4′-bipyridin]-5-yl)amino)pyridin-3-yl)-3-methylpiperazin-1-yl)piperidin-1-yl)-2-(2,6-dioxopiperidin-3-yl)isoindoline-1,3-dione]
